Biological target: T1, GPX4 (glutathione peroxidase 4) (Homo sapiens, UniProt P36969, U73C)
T1 sequence (P36969 33-197 U73C): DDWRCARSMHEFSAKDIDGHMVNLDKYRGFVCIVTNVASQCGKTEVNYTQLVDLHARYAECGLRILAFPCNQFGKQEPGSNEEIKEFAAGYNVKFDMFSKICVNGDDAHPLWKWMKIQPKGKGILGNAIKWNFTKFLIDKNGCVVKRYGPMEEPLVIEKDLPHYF
Assay: SPR
Format: binding

COC(=O)c1ccc([C@H]2c3[nH]c4ccccc4c3C[C@H](C(=O)OC)N2C(C)=O)cc1 [RSL3-minus-Cl, Methyl (1S,3R)-2-acetyl-1-(4-(methoxycarbonyl)phenyl)-2,3,4,9-tetrahydro-1H-pyrido[3,4-b] indole-3-carboxylate]
Kd: 60 µM
